Data: patent publication US10208037B2, “Toll-like receptor-7 and -8 modulatory 1H imidazoquinoline derived compounds” (The University of Kansas, priority 2011, dated 2019)

Columns and labels:
TLR7 = target: T1, TLR7 (Homo sapiens, UniProt Q9NYK1); assay: TLR7 reporter gene assay (NF-κB induction, HEK-Blue-7 cells), agonism; assay type: cell-based
T1 construct: expressed in transfected cells; host or cells: HEK293 (HEK-Blue-7 cells)
T1 sequence (Q9NYK1 27-1049): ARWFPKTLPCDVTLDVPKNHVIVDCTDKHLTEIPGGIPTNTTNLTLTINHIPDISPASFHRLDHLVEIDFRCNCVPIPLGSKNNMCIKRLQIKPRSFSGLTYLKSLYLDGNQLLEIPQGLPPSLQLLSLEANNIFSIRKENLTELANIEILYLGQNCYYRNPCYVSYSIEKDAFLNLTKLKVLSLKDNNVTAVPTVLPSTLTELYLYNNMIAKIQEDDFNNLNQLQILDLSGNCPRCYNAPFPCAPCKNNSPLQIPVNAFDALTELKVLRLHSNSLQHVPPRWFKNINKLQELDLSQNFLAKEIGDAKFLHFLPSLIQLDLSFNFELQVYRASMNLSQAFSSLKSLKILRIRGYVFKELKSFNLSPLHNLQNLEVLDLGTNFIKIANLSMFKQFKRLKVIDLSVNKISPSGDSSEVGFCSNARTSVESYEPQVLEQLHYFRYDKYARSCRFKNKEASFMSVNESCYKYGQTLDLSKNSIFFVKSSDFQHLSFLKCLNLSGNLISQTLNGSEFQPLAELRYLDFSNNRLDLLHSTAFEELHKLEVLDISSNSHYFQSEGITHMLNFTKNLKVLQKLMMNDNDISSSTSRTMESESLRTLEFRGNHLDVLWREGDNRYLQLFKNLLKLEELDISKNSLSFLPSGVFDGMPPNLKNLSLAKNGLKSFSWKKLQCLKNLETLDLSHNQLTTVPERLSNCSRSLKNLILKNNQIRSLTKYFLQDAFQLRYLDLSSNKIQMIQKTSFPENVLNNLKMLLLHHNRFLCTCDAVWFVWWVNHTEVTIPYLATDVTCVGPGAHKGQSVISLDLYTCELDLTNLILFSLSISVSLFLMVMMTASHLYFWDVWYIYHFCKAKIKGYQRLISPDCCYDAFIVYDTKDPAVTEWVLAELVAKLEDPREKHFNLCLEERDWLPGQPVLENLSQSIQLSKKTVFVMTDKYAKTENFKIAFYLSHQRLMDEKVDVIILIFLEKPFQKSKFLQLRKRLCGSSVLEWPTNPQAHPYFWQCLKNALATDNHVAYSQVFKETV
From the text: (§1) NF-κB induction: The induction of NF-κB was quantified using HEK-Blue-7 cells and HEK-Blue-8 cells as previously described by us.^8,24 HEK293 cells were stably transfected with human TLR7 (or human TLR8), MD2, and secreted alkaline phosphatase (sAP), and were maintained in HEK-Blue™ Selection medium containing zeocin and normocin. Stable expression of secreted alkaline phosphatase (sAP) under control of NF-κB/AP-1 promoters is inducible by the TLR7 (or TLR8) agonists, and extracellular sAP in the supernatant is proportional to NF-κB induction. HEK-Blue cells were incubated at a density of […] in a volume of 80 μL/well, in 384-well, flat-bottomed, cell culture-treated microtiter plates until confluency was achieved, and subsequently graded concentrations of stimuli. sAP was assayed spectrophotometrically using an alkaline phosphatase-specific chromogen (present in HEK-detection medium as supplied by the vendor) at 620 nm.
(§2) The induction of NF-κB was quantified using HEK-Blue-3, HEK-Blue-7 and HEK-Blue-8 cells as previously described by us.^8,24,51 HEK293 cells were stably transfected with human TLR3 (or human TLR7 or human TLR8), MD2, and secreted alkaline phosphatase (sAP), and were maintained in HEK-Blue™ Selection medium containing zeocin and normocin. Stable expression of secreted alkaline phosphatase (sAP) under control of NF-κB/AP-1 promoters is inducible by the TLR3 (or TLR7 or TLR8) agonists, and extracellular sAP in the supernatant is proportional to NF-κB induction. HEK-Blue cells were incubated at a density of ˜10^5 cells/ml in a volume of 80 μl/well, in 384-well, flat-bottomed, cell culture-treated microtiter plates until confluency was achieved, and subsequently graded concentrations of stimuli. sAP was assayed spectrophotometrically using an alkaline phosphatase-specific chromogen (present in HEK-detection medium as supplied by the vendor) at 620 nm.

TLR8 = target: T2, TLR8 (Homo sapiens, UniProt Q9NR97); assay: TLR8 reporter gene assay (NF-κB induction, HEK-Blue-8 cells), agonism; assay type: cell-based
T2 construct: expressed in transfected cells; host or cells: HEK293 (HEK-Blue-8 cells)
T2 sequence (Q9NR97 27-1041): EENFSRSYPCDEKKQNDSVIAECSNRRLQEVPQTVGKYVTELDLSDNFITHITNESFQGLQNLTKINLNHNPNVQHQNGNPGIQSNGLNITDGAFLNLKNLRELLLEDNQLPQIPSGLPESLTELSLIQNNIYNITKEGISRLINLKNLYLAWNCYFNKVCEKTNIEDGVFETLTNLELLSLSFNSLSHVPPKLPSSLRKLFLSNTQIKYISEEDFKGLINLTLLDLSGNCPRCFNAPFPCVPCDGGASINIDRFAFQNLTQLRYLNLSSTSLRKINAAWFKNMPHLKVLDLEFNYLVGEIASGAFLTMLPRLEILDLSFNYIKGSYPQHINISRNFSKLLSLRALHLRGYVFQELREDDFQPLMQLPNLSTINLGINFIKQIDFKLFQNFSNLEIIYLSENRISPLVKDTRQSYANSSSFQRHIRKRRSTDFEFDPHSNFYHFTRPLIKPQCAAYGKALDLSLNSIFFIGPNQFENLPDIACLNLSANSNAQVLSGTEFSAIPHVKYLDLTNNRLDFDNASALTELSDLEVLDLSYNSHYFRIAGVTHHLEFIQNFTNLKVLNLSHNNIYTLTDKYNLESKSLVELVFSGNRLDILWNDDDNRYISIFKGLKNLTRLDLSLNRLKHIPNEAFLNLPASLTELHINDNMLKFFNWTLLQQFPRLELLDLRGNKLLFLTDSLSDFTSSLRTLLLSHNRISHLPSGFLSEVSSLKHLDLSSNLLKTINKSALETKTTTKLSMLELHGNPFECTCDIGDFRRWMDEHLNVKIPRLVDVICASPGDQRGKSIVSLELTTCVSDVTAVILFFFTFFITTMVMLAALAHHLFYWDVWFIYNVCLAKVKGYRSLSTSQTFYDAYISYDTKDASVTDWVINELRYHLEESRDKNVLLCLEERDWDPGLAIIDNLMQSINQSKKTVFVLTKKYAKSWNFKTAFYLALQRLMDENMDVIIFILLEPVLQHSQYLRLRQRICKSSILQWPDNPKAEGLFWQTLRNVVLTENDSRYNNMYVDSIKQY
From the text: as §1, §2

human PBMCs [1] = assay: Immunoassays for IFN-α, IFN-γ, IL-12 and IL-18 in human PBMCs; assay type: cell-based
Description: Fresh human peripheral blood mononuclear cells (PBMC) were isolated from human blood obtained by venipuncture with informed consent and as per institutional guidelines on Ficoll-Hypaque gradients as described elsewhere.^53 Aliquots of PBMCs (10^5 cells in 100 µL/well) were stimulated for 12 h with graded concentrations of test compounds. Supernatants were isolated by centrifugation, diluted 1:20, and were assayed in triplicates using a high-sensitivity analyte-specific ELISA kits (PBL Interferon Source, Piscataway, N.J. and R&D Systems, Inc., Minneapolis, Minn.).

human PBMCs [2] = assay: Proinflammatory cytokine induction in human PBMCs; assay type: cell-based
Description: (§3) Aliquots (10^6 cells in 100 μL) of hPBMCs isolated from blood obtained from healthy human donors after informed consent by conventional Ficoll-Hypaque gradient centrifugation were stimulated for 12 h with graded concentrations of test compounds. The supernatant was isolated by centrifugation, diluted 1:20, and cytokines and chemokines were assayed in triplicate using analyte-specific cytokine/chemokine bead array assays as reported by us previously.^74

rabbits = assay: Rabbit immunization model using bovine α-lactalbumin as model subunit vaccine; conditions: in vivo
From the text: FIG. 18 illustrates ratios of Immune-1/pre-immune (after primary vaccination) and Immune-2/pre-immune (after Boost-1) anti-α-lactalbumin IgG titers in rabbits. FIGS. 19A and 19B are graphs illustrating TLR7 and TLR8 agonistic activities of the imidazoquinoline dimers in human TLR-specific reporter gene assays.
FIG. 27 illustrates ratios of immune-1/pre-immune (after primary vaccination) and Immune-2/pre-immune (after Boost-1) anti-α-lactalbumin IgG titers in rabbits using the hybrids as adjuvants. Also shown are the IMDQ (7d) and PAM2CS, as well as IMDQ (7d)+PAM2CS mixture controls.

Aqueous solubility = assay type: physicochemical
outbred CF-1 mice = assay: Immunization of CF-1 mice with bovine α-lactalbumin, antibody ELISA; assay type: in vivo; conditions: relative to α-lactalbumin alone; boost Day 14, bled Day 21
Description: FIGS. 10A-10D are graphs illustrating immunoglobulin profiles in outbred CF-1 mice immunized on Day 0 with 50 μg/animal of α-lactalbumin, or α-lactalbumin covalently coupled with 5 equivalents of 8, or α-lactalbumin mixed with 5 equivalents of 7d. Animals (5 per cohort) were boosted once on Day 14 exactly as mentioned above, and bled on Day 21. α-lactalbumin-specific immunoglobulin levels were quantified by standard antibody-capture ELISA, performed in liquid handler-assisted 384-well format.
FIG. 11 is a graph illustrating affinity IgG ELISA showing antibody titer as a function of chaotrope (NaSCN) concentration. IgG titers on the ordinate axis were calculated from absorbance values at 0.25 (which corresponds to […] above that of naïve controls).
All experiments were performed in accordance with animal care protocols approved by the University of Kansas IACUC Committee. […]
A precision 2000 liquid handler (Bio-Tek, Winooski, Vt.) was used for all serial dilution and reagent addition steps, and a Bio-Tek ELx405 384-well plate washer was employed for plate washes; 100 mM phosphate-buffered saline (PBS) pH 7.4, containing 0.1% Tween-20 was used as wash buffer. […] Plates were then read at 450 nm using a SpectraMax M4 device (Molecular Devices, Sunnyvale, Calif.). […]

[3] = system: human peripheral blood mononuclear cells; assay: IFN-α induction in human PBMCs (ELISA); assay type: cell-based; conditions: hPBMC, 12 h
Description: FIG. 21 is a graph illustrating IFN-α induction by select dimers in human peripheral blood mononuclear cells. IFN-α was assayed by analyte specific ELISA after incubation of hPBMCs with graded concentrations of the test compound for 12 h.
as §3, with “IFN-α was” for “cytokines and chemokines were”, “a high-sensitivity human IFN-α-specific ELISA kit (PBL Interferon Source, Piscataway, N.J.).” for “analyte-specific cytokine/chemokine bead array assays as reported by us previously.^74”

Row | TLR8-agonistic activity (in words) (TLR8) | Aqueous solubility (in words) (Aqueous solubility) | EC50 (TLR7; Table 1, ND = not detected, read-out: TLR7 Agonism) | EC50 (TLR8; Table 1, ND = not detected) | SMILES | TLR7-agonistic activity (in words) (TLR7) | IFN-γ induction (in words) (human PBMCs [1]) | Proinflammatory cytokine induction (in words) (human PBMCs [2]) | Adjuvantic activity, anti-α-lactalbumin IgG titers in rabbits (rabbits) | Th1 bias (induction of IFN-α, IFN-γ, IL-12, IL-18) (human PBMCs [1]) | α-lactalbumin-specific antibody titers (outbred CF-1 mice) | IFN-α induction (in words) [3]
1 | loss of TLR8-stimulatory activity |  |  |  | CCCCc1nc2c(N)nc3ccccc3c2n1Cc1ccc(CNC(=O)Cn2cc(CN(CCN(CCN(Cc3cn(CC(=O)NCc4ccc(Cn5c(CCCC)nc6c(N)nc7ccccc7c65)cc4)nn3)Cc3cn(CC(=O)NCc4ccc(Cn5c(CCCC)nc6c(N)nc7ccccc7c65)cc4)nn3)CCN(Cc3cn(CC(=O)NCc4ccc(Cn5c(CCCC)nc6c(N)nc7ccccc7c65)cc4)nn3)Cc3cn(CC(=O)NCc4ccc(Cn5c(CCCC)nc6c(N)nc7ccccc7c65)cc4)nn3)Cc3cn(CC(=O)NCc4ccc(Cn5c(CCCC)nc6c(N)nc7ccccc7c65)cc4)nn3)nn2)cc1 [Compound 43] | retaining in large measure the TLR7-agonistic activity | selective and complete loss of TLR8-associated IFN-γ | absence of proinflammatory cytokine induction | better than 7d |  |  | 
2 |  | excellent |  |  | CCCCc1nc2c(N)nc3ccccc3c2n1Cc1ccc(CN)cc1 [Compound 7d, 1-(4-(Aminomethyl)benzyl)-2-butyl-1H-imidazo[4,5-c]quinolin-4-amine] |  |  |  |  | prominent Th1 bias | dramatic enhancements in antibody titers | 
3 | displayed both TLR7 and TLR8 agonism |  | 170 nM | 4780 nM | CCCCc1nc2c(N)nc3ccccc3c2n1Cc1ccc(CNC(=O)CCCCCCCCCCC(=O)NCc2ccc(Cn3c(CCCC)nc4c(N)nc5ccccc5c43)cc2)cc1 [Compound 52c, N^1,N^12-bis(4-((4-amino-2-butyl-1H-imidazo[4,5-c]quinolin-1-yl)methyl)benzyl)dodecane Diamide] |  |  |  |  |  |  | most potent
